Results from patent US20120129897A1, “BIS HETEROARYL INHIBITORS OF PRO-MATRIX METALLOPROTEINASE ACTIVATION” (priority 2010, published 2012).

Molecular target: T1, proMMP9 (Rattus norvegicus, UniProt P50282)
T1 construct: endogenous in cells; host or cells: primary synoviocytes from arthritic female Lewis rats
Assay: Activation of proMMP9 in rat synoviocyte cultures (Western blot)
Type: cell-based
Conditions: for Signal of 80 kD band (INT*mm^2): final 48 hrs, TNFα-stimulated, pAb-1246; for 80 kD active MMP9 form detected with mAb L51/82 / 80 kD active MMP9 detected with pAb-1246: 0.37-10 μM; for 80 kD active MMP9 form detected with mAb L51/82: FIG. 1A; for 80 kD active MMP9 detected with pAb-1246: FIG. 1B
Source text: A primary synoviocytes line was derived from the periarticular tissue of arthritic rats. Arthritis was induced in female Lewis rats following an i.p. administration of streptococcal cell wall peptidoglycan polysaccharides (J Exp Med 1977; 146:1585-1602). Rats with established arthritis were sacrificed, and hind-limbs were severed, immersed briefly in 70% ethanol, and placed in a sterile hood. The skin was removed and the inflamed tissue surrounding the tibia-tarsal joint was harvested using a scalpel. Tissue from six rats was pooled, minced to approximately 8 mm^3 pieces, and cultured in Dulbecco's Modified Eagle's Medium (DMEM) containing 15% fetal calf serum (FCS). In the following weeks, cells migrated out of the tissue piece, proliferated, and formed a monolayer of adherent cells. The synoviocytes were lifted from culture plates with 0.05% trypsin and passaged weekly at 1:4 ratios in DMEM containing 10% FCS. Synoviocytes were used at passage 9 to investigate the ability of Compound-α to inhibit the maturation of MMP9 to active form.
Rat synoviocytes spontaneously expressed and activated MMP9 when cultured in collagen gels and stimulated with tumor necrosis factor-alpha (TNFα) (FIG. 1 and Table 3). Eight volumes of an ice-cold solution of 3.8 mg/mL rat tail collagen (Sigma Cat #C3867-1VL) were mixed with 1 volume of 1 M sodium bicarbonate and 1 volume of 10× Roswell Park Memorial Institute medium. The pH of the mixture was adjusted to pH 7 with 1 N sodium hydroxide and equal volumes of the pH-adjusted collagen solution were mixed with DMEM containing 0.8 million synoviocytes per mL. One half mL volumes were dispensed into Costar 24-well culture dishes and placed for one hr at 37° C. and 5% CO2, during which time the collagen solution formed a gel. Individual gels were dislodged into wells of 12-well Costar plates containing 1 mL/well of DMEM adjusted to contain 0.05% BSA and 100 ng/mL mouse TNFα (R&D Systems Cat #410-MT-010). […] After overnight culture at 37° C. and 5% CO2, wells were adjusted to contain an additional 0.5 mL of DMEM containing 0.05% BSA and Compound-α at 4× the final desired concentration (final culture volumes were 2 mL). The plates were cultured an additional 48 hrs, at which time 1 mL of conditioned media were harvested into fresh eppendorf tubes containing 40 μL/mL of a 50% slurry of gelatin-conjugated sepharose (GE Healthcare Cat #17-0956-01). Samples were rotated for 2 hrs at 4° C. before centrifugation 1 min×200 g. Supernatants were discarded. The gelatin-sepharose pellets were washed once with 1 mL of ice cold DMEM, resuspended in 50 μL of 2× reducing Leamli buffer and heated 5 min at 95° C. Fifteen μL of eluted proteins were resolved on 4-12% NuPAGE gels and transferred to 0.45 μm pore-sized nitrocellose blots. Next, blots were incubated in blocking buffer (5% milk in Tris-buffered saline containing 0.1% Tween-20) for 1 hr at RT and probed overnight (4° C.) with blocking buffer containing 1 μg/mL primary antibodies. Blots were next probed 1 hr at RT with 1/10,000 dilutions of goat anti-mouse IgG-HRP or goat anti-rabbit IgG-HRP (Santa Cruz) in blocking buffer and developed using SuperSignal® West Fempto Maximum Sensitivity Substrate. Chemiluminesence signal was analyzed using a ChemiDoc imaging system (BioRad Laboratories) and Quantity One® image software. Electrophoretic mobility was estimated based on the mobility of standards (Novex Sharp Pre-Stained Protein Standards P/N 57318).
Mouse mAb-L51/82 (UC Davis/NIH NeuroMab Facility, Antibody Incorporated) was used to detect pro and processed forms of MMP9. Synoviocyte-conditioned media contained an approximately 80 kD form of MMP9 (FIG. 1A, lane 2). […] The 86 kD form was predominant in the presence of 10 μM Compound-α (FIG. 1A, lane 6). Lane 1 was loaded with a standard containing 3 ng of full-length rat proMMP9(1-708) (SEQ ID NO:11) and 3 ng of full-length rat proMMP9(1-708) (SEQ ID NO:11) converted to catalytic rat MMP9 by catalytic MMP3. […]

T1 sequence (P50282 20-708 limits assumed): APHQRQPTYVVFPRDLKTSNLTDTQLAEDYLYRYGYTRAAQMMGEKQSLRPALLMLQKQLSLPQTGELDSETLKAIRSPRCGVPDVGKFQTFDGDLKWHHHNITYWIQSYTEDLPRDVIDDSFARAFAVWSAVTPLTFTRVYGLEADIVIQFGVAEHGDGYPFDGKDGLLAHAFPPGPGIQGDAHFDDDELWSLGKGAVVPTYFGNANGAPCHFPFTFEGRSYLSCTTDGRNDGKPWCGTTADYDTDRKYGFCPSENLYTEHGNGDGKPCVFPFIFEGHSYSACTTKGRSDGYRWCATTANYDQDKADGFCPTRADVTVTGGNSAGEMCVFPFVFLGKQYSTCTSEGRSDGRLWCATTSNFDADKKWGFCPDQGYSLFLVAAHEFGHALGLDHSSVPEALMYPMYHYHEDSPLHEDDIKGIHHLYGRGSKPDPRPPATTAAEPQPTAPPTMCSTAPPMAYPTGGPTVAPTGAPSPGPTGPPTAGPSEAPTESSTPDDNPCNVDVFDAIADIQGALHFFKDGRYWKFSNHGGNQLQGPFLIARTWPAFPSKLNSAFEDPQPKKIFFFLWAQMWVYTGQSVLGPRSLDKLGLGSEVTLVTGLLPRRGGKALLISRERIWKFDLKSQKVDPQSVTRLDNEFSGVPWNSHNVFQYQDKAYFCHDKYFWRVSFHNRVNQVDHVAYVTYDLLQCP

Signal of 80 kD band (INT*mm^2) (0.37 μM): 74381 INT*mm^2
Signal of 80 kD band (INT*mm^2) (1.1 μM): 45381 INT*mm^2
Signal of 80 kD band (INT*mm^2) (3.3 μM): 11554 INT*mm^2
Signal of 80 kD band (INT*mm^2) (10 μM): 2578 INT*mm^2
80 kD active MMP9 form detected with mAb L51/82: reduced in a dose dependent fashion
80 kD active MMP9 detected with pAb-1246: dose-dependent reduction in active MMP9
Structure (SMILES): Cc1nc(C)c(-c2csc(Nc3cc(S(N)(=O)=O)ccc3OC(C)C)n2)s1 [Compound-α, 3-(2′,4′-Dimethyl-[4,5′]bithiazolyl-2-ylamino)-4-isopropoxy-benzenesulfonamide.HBr]
80 kD active MMP9 form detected with mAb L51/82 (listed as Compound a): dose-dependent reduction in the appearance of the 80 kD active form of MMP9
80 kD active MMP9 detected with pAb-1246 (listed as Compound α): dose-dependent reduction in the appearance of the 80 kD active form of MMP9
